The test system of data set [1] is dengue virus type 2. Kind of data set: Antiviral activity against DENV-2 16,681 infected in Vero E6 cells assessed as reduction in virus induced cytopathic effect at 10 uM incubated for 4 days by inverted microscopic analysis. Conditions: time 4.0 day. It counts as functional, organism-based.
Data set [2] deals with dengue virus type 2. Kind of data set: Antiviral activity against DENV-2 16,681 infected in Vero E6 cells assessed as reduction in viral infection by measuring NS4B positive cells at 10 uM incubated for 4 days by immunofluorescence assay. The data set is classed as functional. The arrangement: scale not given: the % may be the effect or the level left. To be noted: time 4 day.

Data set [3] in a line: Cytotoxicity against african green monkey Vero E6 cells by MTT assay. To be noted: chlorocebus sabaeus. It counts as toxicity, cell-based, Vero C1008.
For data set [4], the system named is dengue virus type 2. Kind of data set: Antiviral activity against DENV-2 16,681 infected in Vero E6 cells assessed as reduction in virus induced cytopathic effect measured after 96 hrs by inverted microscopic analysis. The data set is classed as functional, organism-based. Conditions: Dengue virus, 16,681, Vero C1008, 96 h.
A short description of data set [5]: Selectivity index, ratio of CC50 for african green monkey Vero E6 cells to EC50 for antiviral activity against DENV-2 16,681 infected in Vero E6 cells. Conditions: read-out: Ratio CC50/EC50. The data set is classed as toxicity, cell-based.
The nature of data set [6]: Cytotoxicity against human A549 cells by MTT assay. It counts as toxicity, cell-based.
The test system of data set [7] is dengue virus type 2. Kind of data set: Antiviral activity against DENV-2 16,681 infected in A549 cells assessed as reduction in virus induced cytopathic effect measured after 96 hrs by inverted microscopic analysis. Conditions: Dengue virus, 16,681, A549, 96 h. It counts as functional, organism-based.
A short description of data set [8]: Selectivity index, ratio of CC50 for human A549 cells to EC50 for antiviral activity against DENV-2 16,681 infected in A549 cells. Conditions: read-out: Ratio CC50/EC50. The data set is classed as toxicity, cell-based.
Data set [9] concerns dengue virus type 2. Kind of data set: Antiviral activity against DENV-2 16,681 infected in Vero E6 cells assessed as reduction in viral infectivity by measuring NS4B-positive cells at 10 uM pretreated with compound for 1 hr followed by viral infection and washout measured after 96 hrs by immunofluorescence analysis. The data set is classed as functional. The arrangement: scale not given: the % may be the effect or the level left.

Data set [10] deals with dengue virus type 2. Kind of data set: Antiviral activity against DENV-2 16,681 infected in Vero E6 cells assessed as reduction in viral infectivity by measuring NS4B-positive cells at 0.1 uM incubated for 1 hr followed by washout and measured after 96 hrs by immunofluorescence analysis. The arrangement: scale not given: the % may be the effect or the level left. The data set is classed as functional.

The test system of data set [11] is dengue virus type 2. Kind of data set: Antiviral activity against DENV-2 16,681 infected in Vero E6 cells assessed as reduction in viral infectivity by measuring NS4B-positive cells at 1 uM pretreated with virus for 1 hr followed by compound addition for 1 hr prior to washout and measured after 96 hrs by immunofluorescence analysis. The data set is classed as functional. The arrangement: scale not given: the % may be the effect or the level left.

Data set [12] has as its system dengue virus type 2. Kind of data set: Antiviral activity against DENV-2 16,681 infected in Vero E6 cells assessed as reduction in viral infectivity by measuring NS4B-positive cells pretreated with compound for 1 hr followed by viral infection and washout measured after 96 hrs by immunofluorescence analysis. The data set is classed as functional, organism-based. To be noted: Dengue virus, 16,681, Vero C1008.

Data set [13] has as its system dengue virus type 2. Kind of data set: Antiviral activity against DENV-2 16,681 infected in Vero E6 cells assessed as reduction in viral infectivity by measuring NS4B-positive cells incubated for 1 hr followed by washout and measured after 96 hrs by immunofluorescence analysis. The data set is classed as functional, organism-based. To be noted: Dengue virus, 16,681, Vero C1008.

In data set [14] the test system is dengue virus type 2. Kind of data set: Antiviral activity against DENV-2 16,681 infected in Vero E6 cells assessed as reduction in viral infectivity by measuring NS4B-positive cells pretreated with virus for 1 hr followed by compound addition for 1 hr prior to washout and measured after 96 hrs by immunofluorescence analysis. It counts as functional, organism-based. Conditions: Dengue virus, 16,681, Vero C1008.

Data set [15] deals with dengue virus type 2. Kind of data set: Antiviral activity against DENV-2 16,681 infected in Vero E6 cells assessed as reduction in viral infectivity by measuring NS4B-positive cells incubated for 1 hr followed by washout and subsequent culturing. It counts as functional, organism-based. To be noted: Dengue virus, 16,681, Vero C1008, 1 h.
The next data set has as its target Genome polyprotein (dengue virus type 2, UniProt P29990). Kind of data set: Inhibition of DENV-2 NS2B/NS3 protease expressed in HEK293 cells cotransfected with CFP-trrg-YFP incubated for 24 hrs by FRET assay. It counts as cell-based.

The structures appear in SMILES notation. The source made the active and inactive calls. The rule behind the calls is not given here. A value given as a limit tells only on which side of the number the result lay.

On to `CN1C[C@H]2C[C@H](Cn3c2cccc3=O)C1=S`, for which the outcome in the data set on dengue virus type 2 [1] was Active. Also, the Activity in the data set with dengue virus type 2 [2] turned out to be 64.9%.

Take `CN1C[C@@H]2C[C@H](C1=S)c1cccc(=O)n1C2`: the outcome with dengue virus type 2 [1] was Active. Further, the Activity with dengue virus type 2 [2] is recorded as 95%; in the data set on dengue virus type 2 [9], less than 40%; in the data set on dengue virus type 2 [10], more than 50%; with dengue virus type 2 [11], more than 60%. Besides, the CC50 in data set [3] and in [6] was more than 50 µM throughout. For the same compound, the EC50 in the data set on dengue virus type 2 [4] is 0.005 µM; in the data set with dengue virus type 2 [7], 0.002 µM; with dengue virus type 2 [12], more than 10 µM; with dengue virus type 2 [13] it was 0.02 µM; in the data set on dengue virus type 2 [14] it was 0.67 µM; with dengue virus type 2 [15], 0.1 µM. Also, the selectivity ratio in [5] is more than 10000; in data set [8], more than 25000. Besides, the IC50 on Genome polyprotein worked out at 2.76 µM.

As for `CN1C[C@@H]2C[C@H](C1=S)c1cccc(=S)n1C2`, in the data set with dengue virus type 2 [1], the outcome was Active. Moreover, the Activity with dengue virus type 2 [2] was 61%.

For the compound `CN1C[C@H]2C[C@H](Cn3c2cccc3=S)C1=S`, the result in the data set on dengue virus type 2 [1] was Active. Also, the Activity in the data set with dengue virus type 2 [2] is recorded as 60%.

In the case of `CN1C[C@@H]2C[C@H](C1)c1cccc(=S)n1C2`, the result with dengue virus type 2 [1] was Active. Also, the Activity with dengue virus type 2 [2] was 88.7%; in the data set with dengue virus type 2 [9], less than 40%; in the data set on dengue virus type 2 [10], more than 50%. The CC50 in [3] and in data set [6] was more than 50 µM throughout. Further, the EC50 in the data set on dengue virus type 2 [4] is 0.94 µM; in the data set with dengue virus type 2 [7], 2.11 µM; with dengue virus type 2 [12] it was more than 10 µM; with dengue virus type 2 [13] it was 0.11 µM; with dengue virus type 2 [14], 4.08 µM; in the data set on dengue virus type 2 [15] it was 1.02 µM. The selectivity ratio is more than 53.2 in data set [5] and more than 23.7 in [8]. Also, the outcome in the data set on dengue virus type 2 [11] was inactive. At Genome polyprotein, this compound yielded an IC50 of 13.5 µM.

Values taken from ChEMBL document CHEMBL5579796, “Inhibition of dengue viruses by N-methylcytisine thio derivatives through targeting viral envelope protein and NS2B-NS3 protease” (Bioorg Med Chem Lett, 2024).
